Values after ≈ are worked out from the molar mass of the structure shown.
What was measured:
[1] = tested on: HCMV recombinant mutant virus (RV145); test: microbe, parasite or virus in culture; assay type: cell-based, human cytomegalovirus; conditions: HCMV
Source text: Microtiter plate assay. Ninety-six well plate cultures of human foreskin fibroblasts are infected in the presence of inhibitor compound with a HCMV recombinant mutant virus whose genome contains the prokaryotic beta-glucuronidase gene (Jefferson, R. A., S. M. Burgess, and D. Hirsh. 1986. Beta-glucuronidase from Escherichia coli as a gene fusion marker. Proc. Natl. Acad. Sci. USA 83:8447-8451) whose expression is controlled by a viral promoter. An example of such a virus is RV145 (Jones, T. R., V. P. Muzithras, and Y. Gluzman. 1991. Replacement mutagenesis of the human cytomegalovirus genome: US10 and US11 gene products are nonessential. J. Virol. 65:5860-5872). Since it is under the control of a viral promoter, beta-glucuronidase expression is an indirect indicator of growth and replication of HCMV in this assay. At 96 hours post-infection, the infected cell lysates are prepared (using 50 mM sodium phosphate [pH7.0]containing 0.1% Triton X-100 and 0.1% sarkosyl) and assayed for beta-glucuronidase activity using a substrate for the enzyme which when cleaved yields either a product which can be measured […] in a spectrophotometer or fluorescently in a microfluorimeter. Examples of such substrates are p-nitrophenyl-beta-D-glucuronide and methylumbelliferylglucuronide, respectively. The presence of an antiviral compound is indicated by the reduced expression of the HCMV genome resident beta-glucuronidase gene, compared to the absence of inhibitor. […] Data from this assay generated using varying amounts of inhibitor compound is also used to estimate the IC50 of an inhibitor compound.

[2] = tested on: HSV-1; test: HSV Antiviral (ELISA) Assay in Vero cells; assay type: cell-based, herpes simplex virus type 1; conditions: HSV-1, Vero cells
Procedure, shortened: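 Viral replication was quantified by cell-fixed ELISA for HSV glycoprotein D, using a β-galactosidase reporter and fluorogenic umbelliferyl substrate, about 24 h after HSV-1 infection (MOI 0.006) of Vero cells. Compounds, at several concentrations, were added 30 min pre-infection. IC50 was derived from fluorescence relative to the compound-free signal.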

[3] = tested on: VZV strain Ellen; test: VZV Antiviral (ELISA) Assay in human foreskin fibroblast cells; assay type: cell-based, varicella-zoster virus
Procedure, shortened: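 Antiviral IC50 is derived by comparing fluorescence with and without compound after a three-day culture of VZV-infected plus uninfected foreskin fibroblasts. Replication is quantified by ELISA against glycoprotein II, using a β-galactosidase secondary and methyl umbelliferyl-β-D-galactoside.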

| Structure (SMILES) | IC50 ug/ml HCMV [1] | IC50 (ug/ml) HSV [2] | IC50 (ug/ml) VZV [3] | % inhibition 10 ug/ml VZV [3] |
| --- | --- | --- | --- | --- |
| Cc1ccccc1C(=O)Nc1ccc(NC(=S)Nc2ccc(N(C)C3CCCCC3)c(Cl)c2)cc1 [Example 247] | >10 µg/mL | >10 µg/mL | 5 µg/mL (≈ 9.86 µM) | 74% |
| CN(c1ccc(NC(=S)Nc2ccc(NC(=O)c3c(F)cccc3F)cc2)cc1Cl)C1CCCCC1 [Example 248] | 2 µg/mL (≈ 3.78 µM) | >10 µg/mL | 2 µg/mL (≈ 3.78 µM) | 96% |
| COc1cccc(C(=O)Nc2ccc(NC(=S)Nc3ccc(N(C)C4CCCCC4)c(Cl)c3)cc2)c1 [Example 250] | >10 µg/mL | >10 µg/mL | >10 µg/mL | 42% |
| COc1cc(OC)c(NC(=S)Nc2ccc(NC(=O)c3cccc(OC(C)=O)c3)cc2)cc1Cl [Example 253] | 8 µg/mL (≈ 16 µM) | 1.2 µg/mL (≈ 2.4 µM) | 6 µg/mL (≈ 12 µM) | 100% |
| COc1cc(OC)c(NC(=S)Nc2ccc(NC(=O)c3cccc(O)c3)cc2)cc1Cl [Example 254] | 4 µg/mL (≈ 8.73 µM) | 0.9 µg/mL (≈ 1.97 µM) | 4 µg/mL (≈ 8.73 µM) | 110% |
| COc1cc(OC)c(NC(=S)Nc2ccc(NC(=O)c3cccc4c3OCO4)cc2)cc1Cl [Example 255] | >10 µg/mL | 1.2 µg/mL (≈ 2.47 µM) | >10 µg/mL | 0% |
| COc1cc(OC)c(NC(=S)Nc2ccc(NC(=O)c3cccc(OC(F)(F)F)c3)cc2)cc1Cl [Example 256] | 9 µg/mL (≈ 17.1 µM) | 2 µg/mL (≈ 3.8 µM) | >10 µg/mL | 15% |
| COc1cc(OC)c(NC(=S)Nc2ccc(NC(=O)c3cccc(OCCN(C)C)c3)cc2)cc1Cl [Example 257] | 7 µg/mL (≈ 13.2 µM) | 2.5 µg/mL (≈ 4.73 µM) | 2.5 µg/mL (≈ 4.73 µM) | 105% |
| COc1cc(OC)c(NC(=S)Nc2ccc(NC(=O)c3cccc(OCCN4CCOCC4)c3)cc2)cc1Cl [Example 258] | 5 µg/mL (≈ 8.76 µM) | 1.5 µg/mL (≈ 2.63 µM) | 1.5 µg/mL (≈ 2.63 µM) | 92% |
| COc1cc(OC)c(NC(=S)Nc2ccc(NC(=O)c3ccccc3F)c(Cl)c2)cc1Cl [Example 278] | >10 µg/mL | >10 µg/mL | >10 µg/mL | 15% |
| COc1cc(OC)c(NC(=S)Nc2ccc(NC(=O)c3ccccc3F)c(C(=O)c3ccccc3)c2)cc1Cl [Example 293] | >10 µg/mL | >50 µg/mL | >10 µg/mL | 2% |
| CN1CCC(N(C)c2ccc(NC(=S)Nc3ccc(NC(=O)c4ccccc4F)cc3)cc2Cl)C1 (centres unmarked) [Example 332] | 0.9 µg/mL (≈ 1.76 µM) | 1 µg/mL (≈ 1.95 µM) | 8 µg/mL (≈ 15.6 µM) | 90% |
| COc1cc(C)c(Cl)cc1NC(=S)Nc1ccc(NC(=O)c2c(F)cccc2F)cc1 [Example 333] | 2.5 µg/mL (≈ 5.41 µM) | 0.04 µg/mL (≈ 0.0866 µM) | 4.5 µg/mL (≈ 9.74 µM) | 92% |
| CN1CCC(N(C)c2ccc(NC(=S)Nc3ccc(NC(=O)c4c(F)cccc4F)cc3)cc2Cl)CC1 [Example 340] | 0.25 µg/mL (≈ 0.459 µM) | 3 µg/mL (≈ 5.51 µM) | 4 µg/mL (≈ 7.35 µM) | 99% |
| CSc1ccc(NC(=S)Nc2ccc(NC(=O)c3ccccc3C)cc2)cc1Cl [Example 342] | 1.4 µg/mL (≈ 3.17 µM) | 0.2 µg/mL (≈ 0.452 µM) | >10 µg/mL | 62% |
| Cc1ccccc1C(=O)Nc1ccc(NC(=S)Nc2ccc(N(C)C)c(Cl)c2)cc1 [Example 346] | 2 µg/mL (≈ 4.56 µM) | 6 µg/mL (≈ 13.7 µM) | >10 µg/mL | 62% |
| CN(C)c1ccc(NC(=S)Nc2ccc(NC(=O)c3c(F)cccc3F)cc2)cc1Cl [Example 348] | 0.8 µg/mL (≈ 1.74 µM) | 4 µg/mL (≈ 8.68 µM) | 8 µg/mL (≈ 17.4 µM) | 95% |

— patent publication US6462055B2, “Alpha-methylbenzyl-containing thiourea inhibitors of herpes viruses containing a phenylenediamine group” (Wyeth, priority 1998, dated 2002)
